According to patent US20090170804A1, “PIRFENIDONE/TOLL-LIKE RECEPTOR (TLR) AGONIST COMPOSITIONS AND METHODS FOR USING THEM TO STIMULATE PRODUCTION OF GRANULOCYTE COLONIZING STIMULATING FACTOR (G-CSF)” (priority 2005, published 2009):
Where two headings read alike, the source gives them in different places.

What was measured:
[1] = test system: Human PBMCs; assay: LPS-mediated cytokine induction in human PBMCs (BioRad Multiplex Cytokine Platform); format: cell-based; set-up: TNF-α release in PBMCs (FIG. 9) / G-CSF release in PBMCs (FIG. 9): dose or concentration left out as unconfirmed; settings: for IC50: PBMC, 1 h pirfenidone pretreatment, LPS, optimal expression at 8 hours
Description: Human PBMCs (10^5 cells per well) were pretreated with pirfenidone (5 mM to 5 μM) for one hour in a 96-well plate and then stimulated with LPS ([…] to 0.01 ng/ml) for 1, 2, 8, or 24 hours at 37° C. Subsequently, cells were spun and supernatants collected and assayed for protein expression using the BioRad Multiplex Cytokine Platform, which enables 17 different cytokines to be analyzed simultaneously: G-CSF, GM-CSF, IFN-γ, IL-1β, IL-2, IL-4, IL-5, IL-6, IL-7, IL-8, IL-10, IL-12 (p70), IL-13, IL-17, MCP-1, MIP-1β, and TNF-α.

[2] = test system: Human PBMCs; assay: p38 inhibitors: TLR-agonist-mediated TNF-α and G-CSF release from human PBMCs; format: cell-based; settings: 1 h pretreatment, then LPS, Fibrin, LTA, PG or CpG for 24 hours
Excerpt: The effect of various p38 inhibitors on LPS-mediated TNF-α and G-CSF release from human PBMCs was examined. Briefly, human PBMCs (10^5 cells per well) were pretreated with pirfenidone, a hydroxyl-pirfenidone derivative, SB202190 (commercially available p38 inhibitor), or SB203580 (commercially available p38 inhibitor) for one hour in a 96-well plate and then stimulated with lipopolysaccharide (LPS, binds TLR4), Fibrin (binds TLR4), lipoteichoic acid (LTA, binds TLR2), peptidoglycan (PG, binds TLR2), or CpG (bacterial DNA, binds TLR9) for 24 hours at 37° C. Subsequently, cells were spun and supernatants collected and assayed for G-CSF expression.
Each TLR agonist alone is set to 1 (positive control) and the subsequent release of G-CSF in the presence of p38 inhibitors is determined relative to the positive control.

[3] = in the presence of pirfenidone (lmM)

Compound | IC50 ([1]; human PBMCs, read-out: pirfenidone IC50 for IL-1β (LPS-mediated cytokine induction)) | IC50 ([1]; human PBMCs, read-out: pirfenidone IC50 for TNF-α (LPS-mediated cytokine induction)) | LPS-mediated release of G-CSF ([1]; human PBMCs) | LPS-mediated release of GM-CSF ([1]; human PBMCs) | LPS-mediated release of IFN-γ ([1]; human PBMCs) | LPS-mediated release of IL-1β ([1]; human PBMCs) | LPS-mediated release of IL-10 ([1]; human PBMCs) | LPS-mediated release of MCP-1 ([1]; human PBMCs) | LPS-mediated release of TNF-α ([1]; human PBMCs) | constitutive (but not LPS-mediated) expression of IL-6 ([1]; human PBMCs) | constitutive (but not LPS-mediated) expression of IL-8 ([1]; human PBMCs) | constitutive (but not LPS-mediated) expression of MIP-1β ([1]; human PBMCs) | LPS-induced expression of G-CSF augmented by [1, 3] | LPS-induced expression of IL-10 augmented by [1, 3] | TNF-α expression in PBMCs (FIG. 1) ([1]; pirfenidone 185 μg/mL and LPS 1 μg/mL) | G-CSF release in PBMCs (FIG. 9) ([1]; pirfenidone and LPS) | TNF-α release in PBMCs (FIG. 9) ([1]; pirfenidone and LPS) | TLR-induced G-CSF release (FIG. 12, fold induction relative to TLR agonist alone) [2] | induction of expression of IL-2, IL-4, IL-5, IL-7, IL-12, IL-13, or IL-17 ([1]; human PBMCs stimulated with LPS)
Cc1ccc(=O)n(-c2ccccc2)c1 [pirfenidone, 5-methyl-1-phenyl-2-(1H)-pyridone] | ~2500 µM | ~1000 µM | augmented | inhibited | inhibited | inhibited | augmented | augmented | inhibited | inhibited | inhibited | inhibited | 100% | 35% | reduced | increased | decreased | augmented | –
lipopolysaccharide [LPS] | – | – | – | – | – | – | – | – | – | – | – | – | – | – | – | – | – | – | did not induce
